Experimental data as given in patent publication US8765741B2, “5,6-dihydro-1H-pyridin-2-one compounds” (Anadys Pharmaceuticals, Inc., priority 2007, dated 2014).

These compounds were tested against NS5B polymerase (Hepatitis C virus genotype 1b, UniProt P26663) (assay: biochemical). Details: NS5B polymerase inhibition; 20 nM enzyme, 75 min at 28° C.; read-out: IC50.
Procedure: Compounds were tested for HCV polymerase inhibition. Assays were performed in a 96-well streptavidin-coated FlashPlate using 20 nM enzyme, 0.5 μCi of [α-^33P]GTP, 0.6 μM GTP, and 250 nM 5′biotinylated oligo (rG13)/poly rC in 20 mM Tris-HCl, pH 7.5, 5 mM MgCl2, 5 mM dithiothreitol, 0.1 g/L bovine serum albumin, and 100 U/mL RNAse inhibitor. The reaction was stopped by aspiration after 75 min at 28° C. and the plate was washed several times. After washing and drying the plate, incorporated radioactivity was counted using a Microbeta scintillation counter. IC50 values were calculated relative to the uninhibited control and inhibition data were fitted to a 4-parameter IC50 equation.

NS5B polymerase, sequence (P26663 2420-3010): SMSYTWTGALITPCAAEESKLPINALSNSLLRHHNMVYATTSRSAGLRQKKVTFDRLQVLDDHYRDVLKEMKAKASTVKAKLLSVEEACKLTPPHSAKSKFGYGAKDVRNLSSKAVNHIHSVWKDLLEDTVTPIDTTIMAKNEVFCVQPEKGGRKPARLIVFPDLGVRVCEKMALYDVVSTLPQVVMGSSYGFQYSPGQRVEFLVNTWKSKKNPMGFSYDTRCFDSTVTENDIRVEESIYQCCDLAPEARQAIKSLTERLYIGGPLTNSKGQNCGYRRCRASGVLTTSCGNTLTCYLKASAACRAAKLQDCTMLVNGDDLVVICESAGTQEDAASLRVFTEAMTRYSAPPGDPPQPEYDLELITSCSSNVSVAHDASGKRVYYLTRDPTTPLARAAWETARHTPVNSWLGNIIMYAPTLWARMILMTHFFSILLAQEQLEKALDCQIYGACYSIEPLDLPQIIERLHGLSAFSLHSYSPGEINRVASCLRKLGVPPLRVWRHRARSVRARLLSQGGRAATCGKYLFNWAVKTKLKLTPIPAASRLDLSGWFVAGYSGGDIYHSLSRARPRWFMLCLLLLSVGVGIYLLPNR

| SMILES | IC50 |
| --- | --- |
| Cc1cc(CN2C(=O)C(C3=NS(=O)(=O)c4cc(NS(C)(=O)=O)ccc4N3)=C(O)[C@H]3[C@@H]2[C@@H]2CC[C@H]3O2)ccc1F [Example 11, N-{3-[(1S,2R,7S,8R)-3-(4-Fluoro-3-methyl-benzyl)-6-hydroxy-4-oxo-11-oxa-3-aza-tricyclo[6.2.1.0^2,7]undec-5-en-5-yl]-1,1-dioxo-1,4-dihydro-1λ^6-benzo[1,2,4]thiadiazin-7-yl}-methanesulfonamide] | < 20 nM |
| CS(=O)(=O)Nc1ccc2c(c1)S(=O)(=O)N=C(C1=C(O)[C@H]3[C@H]([C@@H]4CC[C@H]3O4)N(Cc3ccc(F)cc3)C1=O)N2 [Example 14, N-{3-[(1S,2R,7S,8R)-3-(4-Fluoro-benzyl)-6-hydroxy-4-oxo-11-oxa-3-aza-tricyclo[6.2.1.0^2,7]undec-5-en-5-yl]-1,1-dioxo-1,4-dihydro-1λ^6-benzo[1,2,4]thiadiazin-7-yl}-methanesulfonamide] | < 20 nM |
| CS(=O)(=O)Nc1ccc2c(c1)S(=O)(=O)N=C(C1=C(O)[C@@H]3[C@H]4CC[C@H](C4)[C@@H]3N(Cc3ccc(F)c(F)c3)C1=O)N2 [Example 16, N-{3-[(1R,2S,7R,8S)-3-(3,4-Difluoro-benzyl)-6-hydroxy-4-oxo-3-aza-tricyclo[6.2.1.0^2,7]undec-5-en-5-yl]-1,1-dioxo-1,4-dihydro-1λ^6-benzo[1,2,4]thiadiazin-7-yl}-methanesulfonamide] | < 20 nM |
| CN(c1ccc2c(c1)S(=O)(=O)N=C(C1=C(O)[C@@H]3[C@H]4CC[C@H](C4)[C@@H]3N(Cc3ccc(F)c(F)c3)C1=O)N2)S(C)(=O)=O [Example 17, N-{3-[(1R,2S,7R,8S)-3-(3,4-Difluoro-benzyl)-6-hydroxy-4-oxo-3-aza-tricyclo[6.2.1.0^2,7]undec-5-en-5-yl]-1,1-dioxo-1,4-dihydro-1λ^6-benzo[1,2,4]thiadiazin-7-yl}-N-methyl-methanesulfonamide] | 20 to 100 nM |
| Cc1cc(CN2C(=O)C(C3=NS(=O)(=O)c4cc(N(C)S(C)(=O)=O)ccc4N3)=C(O)[C@@H]3[C@H]4CC[C@H](C4)[C@@H]32)ccc1F [Example 18, N-{3-[(1R,2S,7R,8S)-3-(4-Fluoro-3-methyl-benzyl)-6-hydroxy-4-oxo-3-aza-tricyclo[6.2.1.0^2,7]undec-5-en-5-yl]-1,1-dioxo-1,4-dihydro-1λ^6-benzo[1,2,4]thiadiazin-7-yl}-N-methyl-methanesulfonamide] | 20 to 100 nM |
| O=C1C(C2=NS(=O)(=O)c3cc(I)ccc3N2)=C(O)[C@@H]2[C@H]3CC[C@H](C3)[C@@H]2N1Cc1ccc(F)cc1 [Example 19, (1R,2S,7R,8S)-3-(4-Fluoro-benzyl)-6-hydroxy-5-(7-iodo-1,1-dioxo-1,4-dihydro-1λ^6-benzo[1,2,4]thiadiazin-3-yl)-3-aza-tricyclo[6.2.1.0^2,7]undec-5-en-4-one] | 1000 to 100000 nM |
| O=C1C(C2=NS(=O)(=O)c3cc(C4=CCCS4(=O)=O)ccc3N2)=C(O)[C@@H]2[C@H]3CC[C@H](C3)[C@@H]2N1Cc1ccc(F)cc1 [Example 20, (1R,2S,7R,8S)-5-[7-(1,1-Dioxo-4,5-dihydro-1H-1λ^6-thiophen-2-yl)-1,1-dioxo-1,4-dihydro-1λ^6-benzo[1,2,4]thiadiazin-3-yl]-3-(4-fluoro-benzyl)-6-hydroxy-3-aza-tricyclo[6.2.1.0^2,7]undec-5-en-4-one] | 100 to 1000 nM |
| O=C1C(C2=NS(=O)(=O)c3cc(C4CCCS4(=O)=O)ccc3N2)=C(O)[C@@H]2[C@H]3CC[C@H](C3)[C@@H]2N1Cc1ccc(F)cc1 (stereo partly drawn) [Example 21, (1R,2S,7R,8S)-5-[7-(1,1-Dioxo-tetrahydro-1λ^6-thiophen-2-yl)-1,1-dioxo-1,4-dihydro-1λ^6-benzo[1,2,4]thiadiazin-3-yl]-3-(4-fluoro-benzyl)-6-hydroxy-3-aza-tricyclo[6.2.1.0^2,7]undec-5-en-4-one] | 20 to 100 nM |
| CC(C)CCN1C(=O)C(C2=NS(=O)(=O)c3cc(NS(C)(=O)=O)ccc3N2)=C(O)[C@@H]2[C@H]3CC[C@H](C3)[C@@H]21 [Example 22, (1R,2S,7R,8S)-N-{3-[6-Hydroxy-3-(3-methyl-butyl)-4-oxo-3-aza-tricyclo[6.2.1.0^2,7]undec-5-en-5-yl]-1,1-dioxo-1,4-dihydro-1λ^6-benzo[1,2,4]thiadiazin-7-yl}-methanesulfonamide] | 20 to 100 nM |
| CC(C)CCN1C(=O)C(C2=NS(=O)(=O)c3cc(N(C)S(C)(=O)=O)ccc3N2)=C(O)[C@@H]2[C@H]3CC[C@H](C3)[C@@H]21 [Example 24, (1R,2S,7R,8S)-N-{3-[6-Hydroxy-3-(3-methyl-butyl)-4-oxo-3-aza-tricyclo[6.2.1.0^2,7]undec-5-en-5-yl]-1,1-dioxo-1,4-dihydro-1λ^6-benzo[1,2,4]thiadiazin-7-yl}-N-methyl-methanesulfonamide] | 100 to 1000 nM |
| O=C1C(C2=NS(=O)(=O)c3cc(N4CCCS4(=O)=O)ccc3N2)=C(O)[C@@H]2[C@H]3CC[C@H](C3)[C@@H]2N1Cc1ccc(F)cc1 [Example 26, (1R,2S,7R,8S)-5-[7-(1,1-Dioxo-1λ^6-isothiazolidin-2-yl)-1,1-dioxo-1,4-dihydro-1λ^6-benzo[1,2,4]thiadiazin-3-yl]-3-(4-fluoro-benzyl)-6-hydroxy-3-aza-tricyclo[6.2.1.0^2,7]undec-5-en-4-one] | 100 to 1000 nM |
| CS(=O)(=O)Nc1ccc2c(c1)S(=O)(=O)N=C(C1=C(O)[C@@H]3[C@H]4CC[C@H](C4)[C@@H]3NC1=O)N2 [Example 27, (1R,2S,7R,8S)-N-[3-(6-Hydroxy-4-oxo-3-aza-tricyclo[6.2.1.0^2,7]undec-5-en-5-yl)-1,1-dioxo-1,4-dihydro-1λ^6-benzo[1,2,4]thiadiazin-7-yl]-methanesulfonamide] | 1000 to 100000 nM |
| O=C1C(C2=NS(=O)(=O)c3ccccc3N2)=C(O)[C@@H]2[C@H]3CC[C@H](C3)[C@@H]2N1Cc1ccc(F)cc1 [Example 28, (1R,2S,7R,8S)-5-(1,1-Dioxo-1,4-dihydro-1λ^6-benzo[1,2,4]thiadiazin-3-yl)-3-(4-fluoro-benzyl)-6-hydroxy-3-aza-tricyclo[6.2.1.0^2,7]undec-5-en-4-one] | 100 to 1000 nM |
| CS(=O)(=O)Nc1ccc2c(c1)S(=O)(=O)C=C(C1=C(O)[C@@H]3[C@H]4CC[C@H](C4)[C@@H]3N(Cc3ccc(F)cc3)C1=O)N2 [Example 29, N-{3-[(1R,2S,7R,8S)-3-(4-Fluoro-benzyl)-6-hydroxy-4-oxo-3-aza-tricyclo[6.2.1.0^2,7]undec-5-en-5-yl]-1,1-dioxo-1,4-dihydro-1λ^6-benzo[1,4]thiazin-7-yl}-methanesulfonamide] | < 20 nM |
| Nc1ccc2c(c1)S(=O)(=O)N=C(C1=C(O)[C@@H]3[C@H]4CC[C@H](C4)[C@@H]3N(Cc3ccc(F)cc3)C1=O)N2 [Example 30, (1R,2S,7R,8S)-5-(7-Amino-1,1-dioxo-1,4-dihydro-1λ^6-benzo[1,2,4]thiadiazin-3-yl)-3-(4-fluoro-benzyl)-6-hydroxy-3-aza-tricyclo[6.2.1.0^2,7]undec-5-en-4-one] | 100 to 1000 nM |
| CC(C)CCN1C(=O)C(C2=NS(=O)(=O)c3cc(I)ccc3N2)=C(O)[C@@H]2[C@H]3CC[C@H](C3)[C@@H]21 [Example 34, (1R,2S,7R,8S)-6-Hydroxy-5-(7-iodo-1,1-dioxo-1,4-dihydro-1λ^6-benzo[1,2,4]thiadiazin-3-yl)-3-(3-methyl-butyl)-3-aza-tricyclo[6.2.1.0^2,7]undec-5-en-4-one] | 1000 to 100000 nM |
| O=C1C(C2=NS(=O)(=O)c3cc(NS(=O)(=O)C4CC4)ccc3N2)=C(O)C2C([C@@H]3CC[C@H]2C3)N1Cc1ccc(F)cc1 (stereo partly drawn) [Example 35, Cyclopropane sulfonic acid{3-[(1R,2S,7R,8S)-3-(4-fluoro-benzyl)-6-hydroxy-4-oxo-3-aza-tricyclo[6.2.1.0^2,7]undec-5-en-5-yl]-1,1-dioxo-1,4-dihydro-1λ^6-benzo[1,2,4]thiadiazin-7-yl}-amide] | 20 to 100 nM |
| CC(C)CCN1C(=O)C(C2=NS(=O)(=O)c3cc(NS(=O)(=O)C4CC4)ccc3N2)=C(O)C2C1[C@@H]1CC[C@H]2C1 (stereo partly drawn) [Example 40, Cyclopropanesulfonic acid{3-(1R,2S,7R,8S)-[6-hydroxy-3-(3-methyl-butyl)-4-oxo-3-aza-tricyclo[6.2.1.0^2,7]undec-5-en-5-yl]-1,1-dioxo-1,4-dihydro-1λ^6-benzo[1,2,4]thiadiazin-7-yl}-amide] | 20 to 100 nM |
| O=C1C(C2=NS(=O)(=O)c3cc(NS(=O)(=O)c4ccccc4)ccc3N2)=C(O)[C@@H]2[C@H]3CC[C@H](C3)[C@@H]2N1Cc1ccc(F)cc1 [Example 41, N-{3-[(1R,2S,7R,8S)-3-(4-Fluoro-benzyl)-6-hydroxy-4-oxo-3-aza-tricyclo[6.2.1.0^2,7]undec-5-en-5-yl]-1,1-dioxo-1,4-dihydro-1λ^6-benzo[1,2,4]thiadiazin-7-yl}-benzenesulfonamide] | 20 to 100 nM |
| CS(=O)(=O)Nc1ccc2c(c1)S(=O)(=O)N=C(C1=C(O)C3C([C@@H]4CC[C@H]3C4)N(C3CCCC3)C1=O)N2 (stereo partly shown) [Example 44] | 100 to 1000 nM |
| CC(C)OC(=O)N(c1ccc2c(c1)S(=O)(=O)N=C(C1=C(O)C3C([C@@H]4CC[C@H]3C4)N(C3CCCC3)C1=O)N2)S(C)(=O)=O (stereo partly drawn) [Example 47, N-[3-(1R,2S,7R,8S)-(3-Cyclopentyl-6-hydroxy-4-oxo-3-aza-tricyclo[6.2.1.0^2,7]undec-5-en-5-yl)-1,1-dioxo-1,4-dihydro-1λ^6-benzo[1,2,4]thiadiazin-7-yl]-methanesulfonamide-N-isopropyl carbamate] | 1000 to 100000 nM |
| CC(C)CCN1C(=O)C(C2=NS(=O)(=O)c3cc(N4CCCC4)ccc3N2)=C(O)[C@@H]2[C@H]3CC[C@H](C3)[C@@H]21 [Example 53, (1R,2S,7R,8S)-5-(1,1-Dioxo-7-pyrrolidin-1-yl-1,4-dihydro-1λ^6-benzo[1,2,4]thiadiazin-3-yl)-6-hydroxy-3-(3-methyl-butyl)-3-aza-tricyclo[6.2.1.0^2,7]undec-5-en-4-one] | 1000 to 100000 nM |
